This note sets out measurements from PubChem BioAssay AID330 (DTP/NCI, 2004).

Molecules are shown by their SMILES. “And” between values parts separate entries of the source, which are not always exact repeats. Equal values may be shown once. Toxic doses and inconclusive results are not listed.

In this assay the test system is P388 leukemia ip, CD2F1 mice, survival T/C. Kind of assay: NCI In Vivo Anticancer Drug Screen. Data for tumor model P388 Leukemia (intraperitoneal) in CD2F1 (CDF1) mice. The conditions noted are these: endpoint: median survival time, higher = longer survival. The essentials:
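Mice carrying the transplanted tumor received test compound or vehicle. Survival was recorded in each group, and the value is the treated-group measurement divided by that of the vehicle-treated control group.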

The mark [1] stands for this setting: dose: 50.0 mg/kg/injection, schedule: Q01DX005 (ip), vehicle: Klucel (hydroxypropylcellulose) (HPC).
[2] abbreviates: dose: 100.0 mg/kg/injection, schedule: Q01DX005 (ip), vehicle: Klucel (hydroxypropylcellulose) (HPC).
Where [3] appears, read: dose: 200.0 mg/kg/injection, schedule: Q01DX005 (ip), vehicle: Klucel (hydroxypropylcellulose) (HPC).
Setting [4] is: dose: 50.0 mg/kg/injection, schedule: Q01DX009 (ip), vehicle: Klucel (hydroxypropylcellulose) (HPC).
[5] abbreviates: dose: 100.0 mg/kg/injection, schedule: Q01DX009 (ip), vehicle: Klucel (hydroxypropylcellulose) (HPC).
The mark [6] stands for this setting: dose: 200.0 mg/kg/injection, schedule: Q01DX009 (ip), vehicle: Klucel (hydroxypropylcellulose) (HPC).
Setting [7] is: dose: 12.5 mg/kg/injection, schedule: Q01DX009 (ip), vehicle: Klucel (hydroxypropylcellulose) (HPC).
Setting [8] is: dose: 25.0 mg/kg/injection, schedule: Q01DX009 (ip), vehicle: Klucel (hydroxypropylcellulose) (HPC).
Setting [9] is: dose: 50.0 mg/kg/injection, schedule: Q01DX009 (ip), vehicle: saline with Tween-80.
[10] abbreviates: dose: 100.0 mg/kg/injection, schedule: Q01DX009 (ip), vehicle: saline with Tween-80.
The mark [11] stands for this setting: dose: 200.0 mg/kg/injection, schedule: Q01DX009 (ip), vehicle: saline with Tween-80.
[12] abbreviates: dose: 100.0 mg/kg/injection, schedule: Q04DX002 (ip), vehicle: saline with Tween-80.
The mark [13] stands for this setting: dose: 200.0 mg/kg/injection, schedule: Q04DX002 (ip), vehicle: saline with Tween-80.
[14] abbreviates: dose: 400.0 mg/kg/injection, schedule: Q04DX002 (ip), vehicle: saline with Tween-80.

Turning to `COc1ccc2c(c1OC)C1NCCc3cc4c(cc3C1(OC)C2=O)OCO4` (centres undefined), the T/C reads like this: (dose: 25.0 mg/kg/injection, schedule: Q01DX005 (ip), vehicle: distilled water + Tween-80 + alcohol) 109 % of control; (dose: 50.0 mg/kg/injection, schedule: Q01DX005 (ip), vehicle: distilled water + Tween-80 + alcohol) 104 % of control; (dose: 100.0 mg/kg/injection, schedule: Q01DX005 (ip), vehicle: distilled water + Tween-80 + alcohol) 107 % of control; (dose: 200.0 mg/kg/injection, schedule: Q01DX005 (ip), vehicle: distilled water + Tween-80 + alcohol) 103 % of control.

As to `CC(=O)N1C=CN(C(C)=O)C1c1c[nH]c2ccccc12`, the T/C by setting is: under setting [1], 98 % of control; under setting [2], 104 % of control; under setting [3], 99 % of control.

For `CCN(CC)c1c(C)c(-c2ccccc2)oc(=O)c1-c1ccccc1`, the T/C was 105 % of control under setting [4], 100 % of control under setting [5] and 100 % of control under setting [6].

Turning to `COc1cc2c(cc1OC)[C@@]1(C[C@H]1CO)OCC2`, the T/C is, setting by setting: (dose: 100.0 mg/kg/injection, schedule: Q04DX002 (ip), vehicle: Klucel (hydroxypropylcellulose) (HPC)) 100 % of control; (dose: 200.0 mg/kg/injection, schedule: Q04DX002 (ip), vehicle: Klucel (hydroxypropylcellulose) (HPC)) 98 % of control; (dose: 400.0 mg/kg/injection, schedule: Q04DX002 (ip), vehicle: Klucel (hydroxypropylcellulose) (HPC)) 95 % of control.

Consider `CCOC(Cn1cc([N+](=O)[O-])c(=O)[nH]c1=O)OCC`, for which the T/C (dose: 25.0 mg/kg/injection, schedule: Q01DX005 (ip), vehicle: Klucel (hydroxypropylcellulose) (HPC)) is 90 % of control and the T/C under setting [1] was 95 % of control.

Regarding `O=C1CCCCCCCCCCCCCCCO1`, the T/C runs as follows: (dose: 6.25 mg/kg/injection, schedule: Q01DX009 (ip), vehicle: Klucel (hydroxypropylcellulose) (HPC)) 103 % of control; under setting [7], 98 % of control and 115 % of control; under setting [8], 104 % of control and 97 % of control; under setting [4], 100 % of control and 120 % of control and 91 % of control; under setting [5], 109 % of control; under setting [6], 111 % of control. Under “dose: 400.0 mg/kg/injection, schedule: Q01DX009 (ip), vehicle: Klucel (hydroxypropylcellulose) (HPC)”, the T/C was 109 % of control.

As for `O=C(Nc1cccc(Cl)c1)Nc1ccc[nH]c1=O`, the T/C was 101 % of control under setting [9], 109 % of control under setting [10] and 109 % of control under setting [11].

Turning to `CC1CNC2(c3ccccc3)CSC=C(c3ccccc3)N12` (centres undefined), the T/C under setting [12] was 98 % of control, the T/C under setting [13] was 101 % of control and the T/C under setting [14] was 102 % of control.

Turning to `CC12CCC(C(=O)C1=O)C2(C)C` (centres undefined), the T/C is 102 % of control under setting [9]; 93 % of control under setting [10]; 95 % of control under setting [11]; 97 % of control (dose: 400.0 mg/kg/injection, schedule: Q01DX009 (ip), vehicle: saline with Tween-80).

As for `O=C1CN(/N=C/c2ccc(-c3cccc(C(F)(F)F)c3)o2)C(=O)N1`, the T/C (dose: 50.0 mg/kg/injection, schedule: Q04DX002 (ip), vehicle: saline with Tween-80) is 101 % of control and the T/C under setting [12] is 109 % of control.

Turning to `COc1cc(NC(=O)c2ccc(NC(=O)c3ccc(N)cc3)cc2)c(OC)cc1N=Nc1ccc(N=Nc2ccc3cc(S(=O)(=O)O)cc(S(=O)(=O)O)c3c2)c(C)c1`, the T/C by setting is: (dose: 50.0 mg/kg/injection, schedule: Q01DX005 (ip), vehicle: saline) 106 % of control (2×) and 111 % of control; (dose: 100.0 mg/kg/injection, schedule: Q01DX005 (ip), vehicle: saline) 106 % of control and 109 % of control and 115 % of control; (dose: 200.0 mg/kg/injection, schedule: Q01DX005 (ip), vehicle: saline) 114 % of control and 115 % of control and 123 % of control; (dose: 400.0 mg/kg/injection, schedule: Q01DX005 (ip), vehicle: saline) 116 % of control and 117 % of control.

In the case of `CCC1=C[C@H]2CN(CCc3c([nH]c4ccccc34)[C@@](C(=O)OC)(c3cc4c(cc3OC)N(C)[C@H]3C(C(=O)OC)=C[C@]5(CC)C=CCN6CC[C@]43[C@@H]65)C2)C1`, the T/C by setting is: (dose: 1.0 mg/kg/injection, schedule: Q01DX001 (ip), vehicle: other) 101 % of control; (dose: 2.0 mg/kg/injection, schedule: Q01DX001 (ip), vehicle: other) 99 % of control; (dose: 4.0 mg/kg/injection, schedule: Q01DX001 (ip), vehicle: other) 105 % of control; (dose: 8.0 mg/kg/injection, schedule: Q01DX001 (ip), vehicle: other) 107 % of control and 120 % of control; (dose: 16.0 mg/kg/injection, schedule: Q01DX001 (ip), vehicle: distilled water + Tween-80) 124 % of control; (dose: 16.0 mg/kg/injection, schedule: Q01DX001 (ip), vehicle: other) 113 % of control. The T/C reads like this: (dose: 64.0 mg/kg/injection, schedule: Q01DX001 (ip), vehicle: distilled water + Tween-80) 171 % of control; (dose: 64.0 mg/kg/injection, schedule: Q01DX001 (ip), vehicle: other) 121 % of control; (dose: 128.0 mg/kg/injection, schedule: Q01DX001 (ip), vehicle: other) 183 % of control.

As for `O=S(c1ccccc1)c1c(Cl)c(Cl)nc(Cl)c1Cl` (centres undefined), the T/C runs as follows: (dose: 22.0 mg/kg/injection, schedule: Q01DX009 (ip), vehicle: saline with Tween-80) 100 % of control and 113 % of control; (dose: 33.0 mg/kg/injection, schedule: Q01DX009 (ip), vehicle: saline with Tween-80) 109 % of control.

With `COc1ccc(OC)c(CC(CC(=O)O)C(C)=O)c1` (centres undefined), the T/C (dose: 25.0 mg/kg/injection, schedule: Q01DX009 (ip), vehicle: other) is 97 % of control; the T/C (dose: 50.0 mg/kg/injection, schedule: Q01DX009 (ip), vehicle: other) is 100 % of control; the T/C (dose: 100.0 mg/kg/injection, schedule: Q01DX009 (ip), vehicle: other) was 100 % of control; the T/C (dose: 200.0 mg/kg/injection, schedule: Q01DX009 (ip), vehicle: other) is 101 % of control; the T/C (dose: 400.0 mg/kg/injection, schedule: Q01DX009 (ip), vehicle: other) was 108 % of control.

On to `CCCCC(NC(=O)OCc1ccccc1)C(=O)NC(CC(C)C)C(=O)O` (centres undefined), for which the T/C under setting [1] was 100 % of control, the T/C under setting [2] is 100 % of control and the T/C under setting [3] is 92 % of control.

Consider `Brc1ccc2[nH]c3nc(N/N=C/c4cccs4)nnc3c2c1`, for which the T/C is 90 % of control under setting [12], 99 % of control under setting [13] and 106 % of control under setting [14].

Take `COC(=O)c1ccc(SCCC(=O)CN2C(=O)c3ccccc3C2=O)cc1`: the T/C runs as follows: under setting [4], 94 % of control; under setting [5], 93 % of control; under setting [6], 86 % of control.

Regarding `CC#CC#C/C=C1/C=CC(=O)O1`, the T/C by setting is: under setting [7], 105 % of control; under setting [8], 104 % of control; under setting [4], 107 % of control; under setting [5], 107 % of control.

As for `C[C@]12CCC(=O)C=C1CC[C@@H]1[C@@H]2[C@@H](O)C[C@@]2(C)[C@H]1CC[C@]2(O)C(=O)COC(=O)COCC(=O)O`, the T/C is 104 % of control (dose: 100.0 mg/kg/injection, schedule: Q04DX003 (ip), vehicle: saline with Tween-80); 100 % of control (dose: 200.0 mg/kg/injection, schedule: Q04DX003 (ip), vehicle: saline with Tween-80); 116 % of control (dose: 400.0 mg/kg/injection, schedule: Q04DX003 (ip), vehicle: saline with Tween-80).

For `CC1=CCC(=O)O1`, the T/C is 100 % of control (dose: 50.0 mg/kg/injection, schedule: Q01DX009 (ip), vehicle: suspension in saline); 99 % of control and 88 % of control (dose: 100.0 mg/kg/injection, schedule: Q01DX009 (ip), vehicle: suspension in saline); 101 % of control and 87 % of control (dose: 200.0 mg/kg/injection, schedule: Q01DX009 (ip), vehicle: suspension in saline); 98 % of control and 101 % of control (dose: 400.0 mg/kg/injection, schedule: Q01DX009 (ip), vehicle: suspension in saline).
